Source: ChEMBL document CHEMBL1201862, “PubChem BioAssay data set” (2004)
Active and inactive are the calls of the source.

How the values were obtained:
[1] = Luminescence Cell-Based Dose Confirmation HTS to Identify Activators of 5'UTR Stem-Loop Driven Alpha-Synuclein mRNA Translation in H4 Neuroglioblastoma Cells. [Related pubchem assays: 1829 (Project Summary), 1814 (Primary HTS)]; assay type: functional
[2] = Luminescence Cell-Based Dose Response HTS to Identify Activators of Luciferase Translation or Activity in H4 […] Cells. [Related pubchem assays: 1829 (Project Summary), 1814 (Primary HTS)]; assay type: functional
[3] = system: H4; assay: Luminescence Cell-Based Dose Response HTS to Identify Activators of 5'UTR Stem-Loop Driven Prion Protein mRNA Translation in H4 Neuroglioblastoma Cells. [Related pubchem assays: 1829 (Project Summary), 1814 (Primary HTS)]; assay type: functional; details: Homo sapiens
[4] = molecular target: Cytochrome P450 2C9 (Homo sapiens, UniProt P11712)
Cytochrome P450 2C9, sequence (P11712 whole entry): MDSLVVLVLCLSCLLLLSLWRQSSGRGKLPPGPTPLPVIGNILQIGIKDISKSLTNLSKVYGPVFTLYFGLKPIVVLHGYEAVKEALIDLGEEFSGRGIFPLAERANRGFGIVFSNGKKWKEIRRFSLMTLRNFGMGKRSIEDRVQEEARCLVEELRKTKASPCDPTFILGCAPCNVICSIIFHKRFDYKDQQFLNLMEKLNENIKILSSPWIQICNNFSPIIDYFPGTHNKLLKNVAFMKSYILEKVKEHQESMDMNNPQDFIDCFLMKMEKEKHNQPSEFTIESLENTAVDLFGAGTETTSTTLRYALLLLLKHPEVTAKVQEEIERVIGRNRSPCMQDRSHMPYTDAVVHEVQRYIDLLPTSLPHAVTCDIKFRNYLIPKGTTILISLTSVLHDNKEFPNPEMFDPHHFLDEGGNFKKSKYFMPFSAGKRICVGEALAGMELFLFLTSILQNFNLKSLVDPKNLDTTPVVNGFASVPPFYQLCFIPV

[5] = viability of PTEN-deleted HCT116 cells – cell-based, HCT116 PTEN knockout, dose response (AID 1047); assay type: functional;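 further: HCT116 colon tumor cells with PTEN knocked out; cells exposed to compound for 60 hours before readout; potency for loss of cell viability measured by luminescence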
[6] = viability of HCT116 lacking mutant beta-catenin – cell-based, human colon tumor, dose response (AID 1045); assay type: functional;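 further: HCT116 colon tumor cells with beta catenin knocked out; cells exposed to compound for 60 hours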
[7] = molecular target: Cytochrome P450 2C19 (Homo sapiens, UniProt P33261); assay: Cytochrome panel assay with activity outcomes. Panel member name: p450-cyp2c19 Compounds with AC50 equal or less than 10 uM are considered active; assay type: functional
Cytochrome P450 2C19, sequence (P33261 whole entry): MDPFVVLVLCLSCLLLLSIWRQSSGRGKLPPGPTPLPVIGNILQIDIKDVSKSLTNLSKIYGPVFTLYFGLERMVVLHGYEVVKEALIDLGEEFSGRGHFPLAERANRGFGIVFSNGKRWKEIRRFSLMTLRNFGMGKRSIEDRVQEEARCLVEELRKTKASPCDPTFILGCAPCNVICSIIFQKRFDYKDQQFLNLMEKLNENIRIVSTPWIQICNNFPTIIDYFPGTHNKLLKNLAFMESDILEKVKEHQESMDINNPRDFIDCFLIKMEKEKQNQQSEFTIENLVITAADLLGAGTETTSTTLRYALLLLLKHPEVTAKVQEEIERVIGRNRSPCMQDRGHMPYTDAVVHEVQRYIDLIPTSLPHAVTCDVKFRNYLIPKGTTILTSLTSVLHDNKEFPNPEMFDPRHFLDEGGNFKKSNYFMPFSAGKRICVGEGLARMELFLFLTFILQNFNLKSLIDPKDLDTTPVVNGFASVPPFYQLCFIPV

[8] = molecular target: Cytochrome P450 2D6 (Homo sapiens, UniProt P10635);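 further: CYP2D6 member of a cytochrome P450 panel assay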
Cytochrome P450 2D6, sequence (P10635 whole entry): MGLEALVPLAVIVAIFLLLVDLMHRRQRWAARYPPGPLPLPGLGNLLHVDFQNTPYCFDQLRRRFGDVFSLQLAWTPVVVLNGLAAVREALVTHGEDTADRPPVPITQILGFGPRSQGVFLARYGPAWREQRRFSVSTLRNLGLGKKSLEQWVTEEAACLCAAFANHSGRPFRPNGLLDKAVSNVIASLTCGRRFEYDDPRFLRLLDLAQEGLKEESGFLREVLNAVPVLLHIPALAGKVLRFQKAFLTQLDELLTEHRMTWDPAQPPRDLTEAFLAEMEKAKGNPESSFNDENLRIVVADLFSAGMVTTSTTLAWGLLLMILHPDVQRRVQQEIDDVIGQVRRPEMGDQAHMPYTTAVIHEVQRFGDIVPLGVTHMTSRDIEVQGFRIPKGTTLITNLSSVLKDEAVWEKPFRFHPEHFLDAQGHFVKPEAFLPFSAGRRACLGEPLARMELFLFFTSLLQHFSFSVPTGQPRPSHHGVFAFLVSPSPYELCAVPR

[9] = molecular target: T1, Cytochrome P450 1A2 (Homo sapiens, UniProt P05177);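 further: PubChem cytochrome P450 panel assay, CYP1A2 panel member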
T1 sequence (P05177 whole entry): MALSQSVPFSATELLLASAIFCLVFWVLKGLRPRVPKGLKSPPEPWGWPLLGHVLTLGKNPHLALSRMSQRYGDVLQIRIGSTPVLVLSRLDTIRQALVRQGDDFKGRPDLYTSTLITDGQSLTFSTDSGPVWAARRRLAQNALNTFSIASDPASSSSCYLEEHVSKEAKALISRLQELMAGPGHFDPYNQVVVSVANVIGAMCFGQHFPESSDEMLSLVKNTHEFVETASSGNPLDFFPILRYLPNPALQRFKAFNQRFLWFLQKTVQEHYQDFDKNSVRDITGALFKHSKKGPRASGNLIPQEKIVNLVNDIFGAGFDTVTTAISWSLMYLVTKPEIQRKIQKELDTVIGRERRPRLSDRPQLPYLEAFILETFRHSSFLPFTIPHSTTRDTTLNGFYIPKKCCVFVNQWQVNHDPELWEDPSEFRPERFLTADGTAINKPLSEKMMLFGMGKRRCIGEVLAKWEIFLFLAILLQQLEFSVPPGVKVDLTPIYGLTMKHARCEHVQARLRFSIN

[10] = Luminescence Cell-Based Dose Retest to Confirm Inhibitors of Cancer Stem Cells. [Related pubchem assays (depositor defined):AID2717, AID2721]; assay type: functional; details: Homo sapiens
[11] = Trypanosoma cruzi growth suppression in host cells – NIH3T3 host cells, beta-gal luminescence, confirmation (AID 2044); assay type: functional, cell-based;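 further: intracellular parasites grown in NIH/3T3 mouse fibroblasts as host cells; luminescent beta-galactosidase reporter signal from transgenic T. cruzi replicating inside host cells; inhibitors lower the luminescence signal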
[12] = NIH3T3 cell viability loss – ATP luminescence, mouse fibroblasts, counter-screen, dose response (AID 2010); assay type: functional, cell-based;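 further: cells exposed to compound for about 90 hours before reading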
[13] = system: Streptococcus sp. 'group A'; assay: Streptococcus pyogenes SK(-)GAS viability under kanamycin – luminescence, BacTiterGlo, confirmation, counter-screen for streptokinase expression inhibitor project, dose response (AID 1900); assay type: functional, organism-based
[14] = molecular target: T2, Streptokinase A (Streptococcus pyogenes serotype M1, UniProt P10520); assay: viability-normalized secreted streptokinase activity reduction – plasminogen activation absorbance, OD405, dose response (AID 1914); assay type: functional, Streptococcus pyogenes M1 GAS;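 further: secreted streptokinase activity via plasminogen activation per viability signal from cell pellet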
T2 sequence (P10520 whole entry): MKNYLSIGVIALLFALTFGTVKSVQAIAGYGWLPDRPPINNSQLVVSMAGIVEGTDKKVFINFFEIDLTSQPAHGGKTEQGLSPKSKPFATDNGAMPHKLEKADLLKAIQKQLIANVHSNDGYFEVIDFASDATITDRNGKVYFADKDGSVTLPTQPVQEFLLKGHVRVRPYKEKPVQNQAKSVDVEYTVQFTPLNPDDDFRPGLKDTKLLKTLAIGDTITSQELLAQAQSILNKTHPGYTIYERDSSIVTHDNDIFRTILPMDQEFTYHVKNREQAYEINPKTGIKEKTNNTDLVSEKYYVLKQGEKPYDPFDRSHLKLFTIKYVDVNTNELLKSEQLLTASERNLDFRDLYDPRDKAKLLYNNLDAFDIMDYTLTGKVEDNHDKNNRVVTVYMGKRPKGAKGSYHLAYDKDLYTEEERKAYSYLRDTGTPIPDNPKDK

[15] = system: Streptococcus; assay: GAS UMAA2166 growth inhibition – luminescence, BacTiterGlo, counter-screen for streptokinase expression inhibitor project, dose response (AID 1915); assay type: functional, organism-based;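 further: potency for reduction of bacterial viability or growth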
[16] = system: INS1; assay: INS-1E survival protection against cytokine death – cell-based, luminescence, retest, dose response (AID 449756); assay type: functional; details: Rattus norvegicus;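 further: cell death triggered by IL-1 beta plus TNF-alpha plus IFN-gamma mixture; protective hits raise ATP signal compared with cytokine alone wells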

## [O-][n+]1c2c([n+]([O-])c3cc(N4CCCC4)c(F)cc31)CCCC2
[1]
  EC50: > 60 µM (not active)
[2]
  EC50: 20.3 µM (active)
[3]
  EC50: 7.53 µM (active)

## CCc1c(C)nc2ccc(Br)cc2c1Cl
[4]
  AC50: 11.2 µM (inconclusive)

## CCCCNC(=O)CSc1nc2cc(OC)c(OC)cc2c(=O)n1Cc1ccc(OC)cc1
[5]
  EC50: 6.66 µM (active)
[6]
  EC50: 10.3 µM (active)
[7]; read-out: AC50
  AC50: 6.31 µM (inconclusive)

## Cc1cc(F)ccc1S(=O)(=O)Nc1ccccc1C(=O)Nc1ccccc1N1CCOCC1
[8]
  AC50: 15.8 µM (inconclusive)

## COCCn1c(=O)c(CCc2ccccc2)nc2cnc(N(C)C)nc21
[8]
  AC50: 10 µM (inconclusive)
[4]
  AC50: 25.1 µM (inconclusive)

## Cc1c(Br)c([N+](=O)[O-])nn1CC(=O)NCc1cccs1
[7]; read-out: AC50
  AC50: 5.01 µM (inconclusive)
[8]
  AC50: 5.01 µM (inconclusive)
[9]
  AC50: 14.1 µM (inconclusive)

## Cc1ccc(-n2c(CCC(=O)O)ccc2-c2cccs2)cc1C
[4]
  AC50: 7.08 µM (inconclusive)

## CN1C(=O)C(O)(CC(=O)c2ccccc2O)c2cc(Br)ccc21 (stereo unspecified)
[5]
  EC50: 18 µM (active)
[6]
  EC50: 17 µM (active)

## CN(Cc1ccco1)c1ncncc1-c1cccc(NS(C)(=O)=O)c1
[8]
  AC50: 20 µM (inconclusive)
[4]
  AC50: 0.501 µM (inconclusive)

## CC(C)OC(=O)C(C#N)c1nc2ccccc2nc1N1CCN(Cc2ccccc2)CC1 (stereo unspecified)
[8]
  AC50: 0.112 µM (inconclusive)

## N#CCCn1c(=O)c(-c2cccc(C#N)c2)nc2cnc(Oc3ccccc3)nc21
[9]
  AC50: 20 µM (inconclusive)
[4]
  AC50: 39.8 µM (inconclusive)

## CCc1cc2c(=O)c(-c3ccc4c(c3)OCCO4)c(C)oc2cc1OS(C)(=O)=O
[5]
  EC50: 21.3 µM (active)
[6]
  EC50: 28.1 µM (active)

## CCCCSc1ncc(C(=O)OCC)c(N)n1
[2]
  EC50: 0.125 µM (active)

## O=C(CSCc1cccc(Cl)c1)Nc1ccccc1-c1ccccc1
[10]
  AC50: 21.7 µM (active)

## COc1ccc2cc3cc(C(=O)Nc4ccc5c(c4)OCO5)oc3nc2c1
[4]
  AC50: 5.01 µM (inconclusive)

## O=C(Cn1cc(SCc2ccccc2Cl)c2ccccc21)N1CCOCC1
[1]
  EC50: 23.8 µM (active)
[2]
  EC50: 8.21 µM (active)
[3]
  EC50: 21 µM (active)

## CCC(c1nnnn1Cc1ccco1)N(CCc1ccccc1)Cc1cc2ccc(OC)cc2nc1O (stereo unspecified)
[5]
  EC50: 22.8 µM (active)
[6]
  EC50: 23.6 µM (active)

## O=c1c(-c2ccc(F)c(F)c2)nc2cncnc2n1Cc1ccccc1
[7]; read-out: AC50
  AC50: 0.0501 µM (inconclusive)

## N#Cc1c(N2CCCC2)nsc1-c1ccccc1
[1]
  EC50: 7.09 µM (active)
[2]
  EC50: 12.5 µM (active)
[3]
  EC50: 23.2 µM (active)

## COc1cc2c(=O)n(Cc3ccco3)c(=O)n(CC(=O)c3ccc(Br)cc3)c2cc1OC
[5]
  EC50: 8.57 µM (active)
[6]
  EC50: 9.3 µM (active)

## Cc1ccc(S[C@@H](CCN2CC[C@H](C(C)(C)C)CCC2=O)c2ccccc2)cc1
[10]
  AC50: 2.64 µM (active)

## COc1ccccc1-c1cncnc1Nc1ccc(F)cc1
[8]
  AC50: 15.8 µM (inconclusive)

## COc1ncc2nc(-c3cccs3)c(=O)n(CCc3ccccc3)c2n1
[7]; read-out: AC50
  AC50: 2.51 µM (inconclusive)

## O=C(c1cc(O)nc2ccc(Br)cc12)N1CCC2(CC1)OCCO2
[7]; read-out: AC50
  AC50: 28.2 µM (inconclusive)
[4]
  AC50: 39.8 µM (inconclusive)

## O=C(CN1CCCCC1)Nc1ccc(Br)cc1C(=O)c1ccccc1Cl
[8]
  AC50: 11.2 µM (inconclusive)

## CC(=O)OC[C@@H]1O[C@@H](O/N=C2/C[C@@H](O)[C@@H](O)[C@@H]3[C@@H]4C(=O)N(C[C@@H]5CCCO5)C(=O)[C@H]4CC[C@H]23)[C@H](OC(C)=O)[C@H](OC(C)=O)[C@@H]1OC(C)=O
[8]
  AC50: 5.01 µM (inconclusive)

## Cc1noc(C)c1C(=O)N1CCC2(CCCN(CC(C)C)C2)CC1
[7]; read-out: AC50
  AC50: 39.8 µM (inconclusive)
[4]
  AC50: 39.8 µM (inconclusive)

## c1ccc(C(c2ccccc2)N2CCC3(CCNCC3)CC2)cc1
[4]
  AC50: 31.6 µM (inconclusive)

## Cc1ccc(C23CC4CC(CC(NC(=O)N5CCN(C)CC5)(C4)C2)C3)cc1
[5]
  EC50: 18 µM (active)
[6]
  EC50: 17.7 µM (active)

## c1ccc(-c2nnn(CCN3CCCCC3)n2)cc1
[8]
  AC50: 3.16 µM (inconclusive)
[9]
  AC50: 5.01 µM (inconclusive)

## COc1cccc(NC(=O)COC(=O)c2c3c(nc4ccccc24)CCC(C)C3)c1 (stereo unspecified)
[11]
  EC50: 2.18 µM (active)
[5]
  EC50: 8.9 µM (active)
[12]
  EC50: > 60 µM (not active)
[6]
  EC50: 14.4 µM (active)

## CCC1CCCCN1C(=O)CSc1nc2c3ccccc3nc-2c(O)n1C (stereo unspecified)
[5]
  EC50: 21.9 µM (active)
[6]
  EC50: 21.2 µM (active)

## Clc1ccc([C@@H](OCCN2CCCCC2)c2ccccc2)cc1
[7]; read-out: AC50
  AC50: 6.31 µM (inconclusive)
[9]
  AC50: 12.6 µM (inconclusive)

## O=C1CSC(c2ccccn2)N1c1ccc(Cl)c(Cl)c1 (stereo unspecified)
[4]
  AC50: 20 µM (inconclusive)

## CCOc1ccc(NC(=O)CN2CCN(S(=O)(=O)c3ccc(Cl)cc3)CC2)cc1
[7]; read-out: AC50
  AC50: 0.562 µM (inconclusive)
[4]
  AC50: 2 µM (inconclusive)

## O=C(CCn1nc(-c2ccc(Cl)cc2)ccc1=O)NCc1ccccn1
[9]
  AC50: 15.8 µM (inconclusive)
[4]
  AC50: 5.01 µM (inconclusive)

## Clc1ccccc1-c1nnc2sc(-c3ccc4c(c3)OCO4)nn12
[1]
  EC50: > 120 µM (not active)
[2]
  EC50: 10.9 µM (active)
[3]
  EC50: 57.6 µM (inconclusive)

## COc1ccccc1CNS(=O)(=O)c1ccc2ncc(C(=O)O)c(O)c2c1
[9]
  AC50: 10 µM (inconclusive)
[4]
  AC50: 11.2 µM (inconclusive)

## COc1ccc(CCNC(=O)CCN2C(=O)C(C)Oc3ccc(C)cc32)cc1OC (stereo unspecified)
[4]
  AC50: 5.62 µM (inconclusive)

## CC(C)(C)c1c2c(c(C(C)(C)C)c3c1OCN(Cc1ccccc1)C3)OCN(Cc1ccccc1)C2
[7]
  AC50: inconclusive

## C[C@H]1[C@H](C)CC[C@]2(C)CC[C@]3(C)C(=CC(=O)C4[C@@]5(C)CC[C@H](O)C(C)(C)C5CC[C@]43C)[C@H]12 (stereo partly specified)
[10]
  AC50: 4.76 µM (active)

## O=C(O)c1ccccc1/C=N\N=C1c2ccccc2-c2ccccc21
[4]
  AC50: 7.94 µM (inconclusive)

## O=C(CSc1nnc(-c2ccccn2)o1)Nc1cccc(Cl)c1
[2]
  EC50: 4.83 µM (active)
[3]
  EC50: > 120 µM (not active)

## O=c1c(-c2cc(F)cc(F)c2)nc2cnc(N3CCNCC3)nc2n1C1CC1
[7]; read-out: AC50
  AC50: 20 µM (inconclusive)

## C=C(C)COc1ccc(-c2nc(N)ncc2-c2ccc(Cl)cc2)c(O)c1
[13]
  EC50: 6.33 µM (active)
[14]
  EC50: > 150 µM (not active)
[15]
  EC50: 8.12 µM (active)
[10]
  AC50: 3.57 µM (active)

## CCc1c(C2(O)CCCCC2)[nH]c2cc(C(F)(F)F)ccc12
[10]
  AC50: 2.64 µM (active)
[16]
  AC50: 7.52 µM (active)

## c1cnc(Nc2nc(-c3ccc4ccccc4c3)cs2)nc1
[7]
  AC50: inconclusive

## c1ccc(N2CCC3(CCNCC3)CC2)cc1
[8]
  AC50: 15.8 µM (inconclusive)

## CNC(C)c1cc(OC)ccc1OC (stereo unspecified)
[8]
  AC50: 25.1 µM (inconclusive)

## CCc1ccccc1NC(=O)c1ccc(F)c(S(=O)(=O)N2CCC(C(N)=O)CC2)c1
[7]; read-out: AC50
  AC50: 31.6 µM (inconclusive)
[4]
  AC50: 25.1 µM (inconclusive)

## Cc1cccn2c(/C=N/OCc3ccc(F)cc3)c(-c3ccc(Cl)cc3)nc12
[7]; read-out: AC50
  AC50: 3.16 µM (inconclusive)

## O=C(Cn1ccs/c1=N/C(=O)C(F)(F)F)c1ccccc1
[1]
  EC50: 56.9 µM (active)
[2]
  EC50: 47.9 µM (active)
[3]
  EC50: 81.7 µM (inconclusive)
